In one assay the target is T1, human Nox4 (Homo sapiens, UniProt Q9NPH5).
T1 construct: expressed in transfected cells; host or cells: T-REx-293 (hNOX4 T-REx-293), tetracycline-induced; membrane fraction
T1 sequence (Q9NPH5 1-578): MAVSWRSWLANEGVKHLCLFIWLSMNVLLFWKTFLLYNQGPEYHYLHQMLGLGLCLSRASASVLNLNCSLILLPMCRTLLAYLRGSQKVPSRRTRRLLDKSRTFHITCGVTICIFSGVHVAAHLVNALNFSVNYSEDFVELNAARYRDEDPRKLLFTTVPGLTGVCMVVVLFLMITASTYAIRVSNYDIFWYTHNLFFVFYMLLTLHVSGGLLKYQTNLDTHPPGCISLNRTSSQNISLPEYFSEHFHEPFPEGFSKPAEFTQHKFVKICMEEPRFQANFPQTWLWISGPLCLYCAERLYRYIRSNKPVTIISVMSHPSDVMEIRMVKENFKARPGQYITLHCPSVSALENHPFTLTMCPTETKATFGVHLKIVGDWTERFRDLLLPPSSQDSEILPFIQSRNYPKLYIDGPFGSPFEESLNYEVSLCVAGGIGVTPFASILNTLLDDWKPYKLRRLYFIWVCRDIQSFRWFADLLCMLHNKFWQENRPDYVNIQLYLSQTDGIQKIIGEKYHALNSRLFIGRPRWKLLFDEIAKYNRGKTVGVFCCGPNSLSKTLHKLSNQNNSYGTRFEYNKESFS
T1 sequence (P13498 2-195 partner limits assumed): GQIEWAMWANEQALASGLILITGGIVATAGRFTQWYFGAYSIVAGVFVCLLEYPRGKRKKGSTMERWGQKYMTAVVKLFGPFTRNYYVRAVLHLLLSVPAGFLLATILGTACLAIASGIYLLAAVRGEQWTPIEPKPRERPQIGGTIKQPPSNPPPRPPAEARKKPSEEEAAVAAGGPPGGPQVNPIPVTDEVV
Kind of assay: ROS production by membranes expressing human Nox4, cell-free Amplex Red assay. In kind it is biochemical. The note with it: for Ki: read-out: Ki hNox4. In short, it runs like this:
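Membranes from tetracycline-induced (1 μg/ml, 24 h) T-REx cells overexpressing human Nox4, incubated in PBS with Amplex Red, HRP and co-factors; NADPH starts ROS production. Compounds 1 nM-100 μM, 20 min at 37° C.; fluorescence (ex 544/em 590 nm) over 10 min; Ki via Cheng-Prusoff, ≥3 experiments in triplicate.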

A further assay concerns murine M-CSF-primed BMNC. Kind of assay: RANKL-induced increase in cytosolic Ca2+ by Fura2 fluorescence. The note with it: 20 μmol/L co-applied with RANKL during stimulation (30 hours); wildtype cells; FIG. 4B. In kind it is cell-based, mice. The source says: A: comparison of cells from wildtype and Nox4−/− mice; B: Effect of a Nox4 inhibitor (Compound (1) or solvent on calcium concentrations in wildtype cells; n≧3; *p<0.05.
Epiphyseal ends of the femora and tibiae were cut off and the bone marrow was flushed out with DMEM containing 10% FCS. Bone marrow stromal cells were collected and plated at a density of 2×10^6 cells/cm^2 in α-MEM containing 10% FCS and 1% penicillin/streptomycin. Following attachment, medium was replaced by basal medium supplemented with 25 ng/ml M-CSF (R&D Systems) for 2 days. Thereafter, cells were cultured for additional 6 days in differentiation medium containing 25 ng/ml M-CSF and 50 ng/ml RANKL (R&D Systems). TRAP staining was performed using the leukocyte acid phosphatase kit (Sigma) following the manufactures instructions according to Mukherjee et al., 2008, supra.
The role of Nox4 for the RANKL-induced increase in cytosolic Ca^2+ was investigated by FURA2 fluorescence as described below. […]
Cells were grown on 96 well plates and differentiated with or without RANKL as described above. […] After another washing step intracellular free Fura-2 and Ca^2+-bound Fura-2 was measured at the wavelength 340 and 380 nm by the ELISA Reader EnVision (PerkinElmer) in 100 μl HEPES Tyrode. […] Eventually the intracellular Ca^2+ was calculated as described by Grynkiewicz et al., 1985, J. Biol. Chem., 260(6):3440-3450.

The subject of assay [1] is xanthine/xanthine oxidase. Kind of assay: Antioxidant activity in an assay of Example 1 (ROS production by xanthine/xanthine oxidase, Amplex Red). In kind it is biochemical. The conditions noted are these: as measured in an assay of Example 1. As for the experimental part:
Reactive Oxygen Species (ROS) production by membranes expressing either human Nox1, or human Nox2 or human Nox4 or human Nox5 or by xanthine/xanthine oxidase were measured using the Amplex Red (AR) method following a slightly modified version of the manufacturer's instruction manual (Invitrogen). Briefly, membranes or xanthine were incubated in PBS with Amplex Red, Horse Radish Peroxidase (HRP) and appropriated co-factors. ROS production was induced by addition of NADPH to NOX-expressing membrane or by addition of xanthine to xanthine oxidase. Non-specific signal was measured in the absence of membranes or in the absence of xanthine.
Antagonist activity of compounds was measured in the presence of increasing concentrations ranging from 1 nM to 100 μM. After an incubation of 20 min in a plate shaker and incubator (Titramax 1000, VWR) at 37° C. with weak agitation (300 rpm), ROS levels were measured for 10 min in a BMG Fluostar microplate reader with excitation and emission wavelengths of 544 nm and 590 nm respectively.

The target in another assay is T2, human Nox2 (Homo sapiens, UniProt P04839).
T2 construct: host or cells: T-REx-CHO (hNOX2 T-REx-CHO), tetracycline-induced; membrane fraction
T2 sequence (P04839 2-570 limits assumed): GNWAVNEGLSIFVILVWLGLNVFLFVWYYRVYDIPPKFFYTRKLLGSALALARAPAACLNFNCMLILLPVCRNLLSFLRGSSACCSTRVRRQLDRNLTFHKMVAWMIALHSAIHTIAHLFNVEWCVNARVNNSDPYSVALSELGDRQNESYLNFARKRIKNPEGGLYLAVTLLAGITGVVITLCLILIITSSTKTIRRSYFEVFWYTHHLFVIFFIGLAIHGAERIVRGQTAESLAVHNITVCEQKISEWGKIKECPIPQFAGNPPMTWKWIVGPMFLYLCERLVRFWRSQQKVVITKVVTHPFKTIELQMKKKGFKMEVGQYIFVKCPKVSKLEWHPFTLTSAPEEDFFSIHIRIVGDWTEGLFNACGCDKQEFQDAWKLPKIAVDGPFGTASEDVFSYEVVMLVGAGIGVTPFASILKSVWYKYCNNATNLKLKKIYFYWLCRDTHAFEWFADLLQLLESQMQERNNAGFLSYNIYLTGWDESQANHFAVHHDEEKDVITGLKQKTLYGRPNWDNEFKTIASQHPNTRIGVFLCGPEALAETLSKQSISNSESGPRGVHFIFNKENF
T2 sequence (P13498 2-195 partner limits assumed): T1 sequence (P13498 2-195 partner limits assumed)
Kind of assay: ROS production by membranes expressing human Nox2, cell-free Amplex Red assay. In kind it is biochemical. The conditions noted are these: read-out: Ki hNox2. In short, it runs like this:
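Membranes from tetracycline-induced (1 μg/ml, 24 h) T-REx-CHO cells stably expressing hNox2 with p22 and cofactors, incubated in PBS with Amplex Red, HRP and cofactors; NADPH starts ROS production. Compounds 1 nM–100 μM, 20 min at 37 °C, then fluorescence (544/590 nm) read for 10 min; Ki by Cheng-Prusoff.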

For assay [2], the system named is female mice subjected to ovariectomy. Kind of assay: Ovariectomy-induced osteoporosis (bone loss) in mice. The format is in vivo. The note with it: distal femur 6 weeks after ovariectomy, compound 1 at 20 and 60 mg/kg, pamidronat 10 mg/kg once a week, microCT. As for the experimental part: BMD of the left femur was measured by peripheral quantitative computed tomography (QCT) using an XCT Research QCT machine (Stratec Medizintechnik, Pforzheim, Germany). One slice (0.2 mm thick) in the mid-diaphysis of the femur and 3 slices in the distal femoral metaphysis located 1.5, 2, and 2.5 mm proximal to the articular surface of the knee joint were measured. BMD values of the distal femoral metaphysic were calculated as the mean of 3 slices. A voxel size of 0.070 mm and a threshold of 710 mg/cm^3 were used for calculation of BMD as described in Hofbauer et al., 2009, Arthritis Rheum., 60(5):1427-1437.
The control group received daily gavages by the solvent.
To study the latter effect, female mice were subjected to ovariectomy to induce osteoporosis and the effect of pharmacological inhibition of Nox4 with a Nox4 inhibitor as well as acute genetic knockout of the protein was studied. For this, mice were subjected to ovariectomy 8 weeks after birth and treatment at 60 mg/kg with a Nox4 inhibitor of the invention was started 2 days after the operation and continued throughout the study (6 weeks).
3, Hamburg was used which completely blocks osteoclast activity. […] For this, bones were scanned with a skyscan 1176 and bone density was analysed with the integrated software using two phantoms with 0.25 g/cm^3 and 0.75 g/cm^3 as reference. A 2 mm portion of the femur from the tibia plateau was analysed for total and trabecular bone density by the software provided by the manufacturer of the machine. […] For this method, the femurs were loaded to failure by 3-point bending tests using a Zwick Z020/TN2A materials testing machine (Zwick, Ulm, Germany) with a 1 kN force detector, and a force resolution of 0.01N. The distance between the lower supports for the bending tests was 5 mm. Crosshead speed during testing was 0.2 mm/minute for all measurements. From the force-displacement data, ultimate force (Fmax; in N) was calculated.

[3] abbreviates: cell-free membranes, Amplex Red, Cheng-Prusoff, average of at least three experiments in triplicate.

Like-named read-outs stand apart in the source and are kept apart here. Some results are limits rather than exact numbers.

Chain of xanthine/xanthine oxidase (P47989 whole entry): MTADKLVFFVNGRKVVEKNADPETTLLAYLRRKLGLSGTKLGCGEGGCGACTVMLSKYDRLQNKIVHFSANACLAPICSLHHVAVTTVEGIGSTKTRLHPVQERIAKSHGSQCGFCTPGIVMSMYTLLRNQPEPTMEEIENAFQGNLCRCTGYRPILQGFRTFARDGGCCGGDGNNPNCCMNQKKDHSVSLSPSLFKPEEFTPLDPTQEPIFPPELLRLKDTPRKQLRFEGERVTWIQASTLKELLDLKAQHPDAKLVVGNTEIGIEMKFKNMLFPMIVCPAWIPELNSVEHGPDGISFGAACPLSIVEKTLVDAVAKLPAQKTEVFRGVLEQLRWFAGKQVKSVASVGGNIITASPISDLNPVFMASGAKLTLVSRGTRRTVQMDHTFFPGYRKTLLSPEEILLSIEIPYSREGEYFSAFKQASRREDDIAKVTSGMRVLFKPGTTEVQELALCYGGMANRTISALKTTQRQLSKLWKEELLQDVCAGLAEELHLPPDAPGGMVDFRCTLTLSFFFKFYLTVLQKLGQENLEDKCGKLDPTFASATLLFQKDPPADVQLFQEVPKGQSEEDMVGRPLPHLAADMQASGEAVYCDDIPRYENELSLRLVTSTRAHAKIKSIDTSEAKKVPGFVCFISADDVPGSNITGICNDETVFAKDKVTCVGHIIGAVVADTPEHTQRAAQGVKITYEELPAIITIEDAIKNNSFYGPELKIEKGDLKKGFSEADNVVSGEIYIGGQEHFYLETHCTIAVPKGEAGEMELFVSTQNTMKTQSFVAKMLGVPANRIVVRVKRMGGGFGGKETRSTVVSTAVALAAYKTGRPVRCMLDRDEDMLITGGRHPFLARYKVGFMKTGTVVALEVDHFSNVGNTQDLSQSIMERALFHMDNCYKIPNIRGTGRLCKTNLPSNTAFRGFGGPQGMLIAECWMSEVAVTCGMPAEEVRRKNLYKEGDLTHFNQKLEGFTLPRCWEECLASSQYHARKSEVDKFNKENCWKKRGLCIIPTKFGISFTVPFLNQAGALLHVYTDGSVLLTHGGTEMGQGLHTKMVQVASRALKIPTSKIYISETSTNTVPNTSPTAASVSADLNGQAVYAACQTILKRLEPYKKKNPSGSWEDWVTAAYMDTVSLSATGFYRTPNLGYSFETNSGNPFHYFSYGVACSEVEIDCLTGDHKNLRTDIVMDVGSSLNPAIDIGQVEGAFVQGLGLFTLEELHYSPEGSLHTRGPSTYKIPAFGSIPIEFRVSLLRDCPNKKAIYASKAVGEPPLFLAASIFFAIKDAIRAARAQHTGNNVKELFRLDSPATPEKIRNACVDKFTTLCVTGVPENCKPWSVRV

In the case of `CN(C)c1cccc(-c2c3c(=O)n(-c4ccccc4Cl)[nH]c3cc(=O)n2C)c1` [2-(2-chlorophenyl)-4-[3-(dimethylamino)phenyl]-5-methyl-1H-pyrazolo[4,3-c]pyridine-3,6(2H,5H)-dione], the “IC50 for Nox4 relative to Nox2” value against human Nox4 (Nox4 versus Nox2, assay of Example 1) was “approximately 10 fold”. For the same molecule, the “RANKL induced increase in cytosolic Ca2+” value in the assay with murine M-CSF-primed BMNC is on record as “prevented the RANKL induced increase in cytosolic Ca^2+”. For the same molecule, the antioxidant activity result in assay [1] was “no antioxidant activity”.
The term Ki denotes a dissociation constant, usually derived from enzyme kinetics or from competition with a known ligand. In the case of `O=c1c2c(-c3cc(F)ccc3F)n(Cc3ccncc3)c(=O)cc2[nH]n1-c1ccccc1Cl` [(35), 2-(2-chlorophenyl)-4-(2,5-difluorophenyl)-5-(pyridin-4-ylmethyl)-1H-pyrazolo[4,3-c]pyridine-3,6(2H,5H)-dione], the Ki stood at 119 nM at human Nox4 (setting [3]) and 665 nM on human Nox2 (setting [3]).
On the same counts, the results for `O=c1c2c(-c3ccc(Cl)cc3)n(Cc3nccs3)c(=O)cc2[nH]n1-c1ccccc1Cl` [(36), 2-(2-chlorophenyl)-4-(4-chlorophenyl)-5-(1,3-thiazol-2-ylmethyl)-1H-pyrazolo[4,3-c]pyridine-3,6(2H,5H)-dione] are 125 nM and 1160 nM.
On the same counts, the results for `O=c1c2c(-c3cc(Cl)cc(Cl)c3)n(Cc3ccncc3)c(=O)cc2[nH]n1-c1ccccc1Cl` [(37), 2-(2-chlorophenyl)-4-(3,5-dichlorophenyl)-5-(pyridin-4-ylmethyl)-1H-pyrazolo[4,3-c]pyridine-3,6(2H,5H)-dione] are 128 nM and 950 nM.
On the same counts, the results for `CN(C)c1cccc(-c2c3c(=O)n(-c4ccccc4Cl)[nH]c3cc(=O)n2Cc2cccnc2)c1` [(39), 2-(2-chlorophenyl)-4-[3-(dimethylamino)phenyl]-5-(pyridin-3-ylmethyl)-1H-pyrazolo[4,3-c]pyridine-3,6(2H,5H)-dione] are 149 nM and 1500 nM.
Regarding `O=c1c2c(-c3cc(F)ccc3F)n(Cc3cccnc3)c(=O)cc2[nH]n1-c1ccccc1Cl` [(42), 2-(2-chlorophenyl)-4-(2,5-difluorophenyl)-5-(pyridin-3-ylmethyl)-1H-pyrazolo[4,3-c]pyridine-3,6(2H,5H)-dione], the Ki at human Nox4 (setting [3]) was found to be 159 nM; on human Nox2 (setting [3]) it was 540 nM.
With `CCC(C)(C)C(=O)O[C@H]1C[C@@H](C)C=C2C=C[C@H](C)[C@H](CC[C@@H]3C[C@@H](O)CC(=O)O3)[C@H]21` [Simvastatin, reference compound], the figures for the Ki at human Nox4 (Simvastatin comparison) and on human Nox2 (Simvastatin comparison) were greater than 133000 nM and greater than 162000 nM, respectively.
`NCCC(O)(P(=O)(O)O)P(=O)(O)O` [pamidronat, reference compound]: the “absolute bone density (total)” value in assay [2] (FIG. 6A) was “increased absolute bone density”. The “absolute trabecular bone density” value in assay [2] (FIG. 6B) is given as “increased”. Moreover, the “relative inhibition of ovarectomy-induced total bone loss” value in assay [2] (FIG. 6C) is roughly 50%. Also, in assay [2] (FIG. 6D), the “relative inhibition of trabecular bone loss” value is on record as “approximately 60%”.

For the origin of these results see US20140323500A1, “NADPH OXIDASE 4 INHIBITORS AND USE THEREOF” (GENKYOTEX SA, priority 2011, published 2014).
